The source of these data is patent publication US20250262167A1, “COMPOUNDS, TARGETS AND PATHWAYS FOR MACROPHAGE MODULATION” (Massachusetts Institute of Technology, priority 2020, published 2025).

For test [1], the system named is hMDM with anti-CD20 labelled human B lymphoma cells (GMB). As to the kind of experiment: ADCP of human macrophages. Conditions: co-culture 2 hrs. Type of test: cell-based. Further details: dose or concentration left out as unconfirmed. As to the method: Conditioned medium (CM) was collected and filtered. B16F10 melanoma cells were cultured for 12 hrs with CM or CM heat-inactivated at 95° C. for 5 min. The number of tumor cells were quantified by flow cytometry. Data were summarized from two independent experiments. * P<0.05 by T-test. P values are shown based on t-test. […] Mouse BMMs (FIG. 14B) or hMDM (FIG. 14C) were treated with […] thiostrepton for 24 hrs, then co-cultured with equal number of eFluro670 and anti-CD20 labelled human B-cell lymphoma cells for 2 hrs, and analyzed by flow cytometry. Macrophages that have phagocytosed tumor cells are identified as efluro670+ and CD14+. Shown are representative eFluro670 histograms gating on CD14+ macrophages from three different experiments.
To examine whether thiostrepton-activating macrophages or conditioned medium have effects on tumor cell growth, BMMs were treated with thiostrepton for 24 hrs. Equal numbers of primed BMMs and melanoma cells (B16F10) were co-cultured for 12 hrs. […] Thiostrepton elevated ADCP of both human and mouse macrophages (FIGS. 14B-14C).

For test [2], the system named is subcutaneous B16F10 tumors. The experiment in a line: B16F10 melanoma model in B6 mice. Conditions: for tumor growth: alone; for tumor growth, with TA99: combination with TA99. Type of test: in vivo, mouse.
For a further test, the system named is PKM2. As to the kind of experiment: PKM enzymatic activity (colorimetric kit) in treated ImKCs. The format is cell-based, mouse. The note with it: parental ImKCs, 50 nM, β-arrestin2-dependent. As to the method:
Data are presented as the mean±sd (n=4). […] Data are presented as the mean±sd (n=6).
FIGS. 29A-29B show comparison of DPI's effect on glycolysis in wild-type and Pkm^−/− BMDMs. […] FIGS. 29C-29D show activation of PKM2 and GAPDH enzymatic activity by DPI is inhibited by ERK1/2 inhibitor. ImKCs were treated with DMSO or DPI alone (500 nM) or DPI plus ERK1/2 inhibitor (SCH772984, […]) for 6 hrs and the enzymatic activities of PKM2 (c) and GAPDH (d) were measured by colorimetric assay kits (Biovision). Data are presented as the mean±sd (n=6).
The enzymatic activities of PKM and GAPDH were measured using the pyruvate kinase activity assay kit (Biovision, #K709) and GAPDH activity assay kit (Biovision, #K680) according to the manufacturer's protocols, respectively.

Setting [3] is: flow cytometry, vs vehicle or TA99.

Like-named read-outs stand apart in the source and are kept apart here.

Description for c-Myc: Transfected cells were not treated or treated with DPI (50 and 500 nM) for 6 hrs and luciferase activities were measured. Data are presented as the mean±sd (n=5). P values were calculated by student t-test. * P<0.05, ** P<0.01, *** P<0.001, **** P<0.0001.
The c-Myc activity was assessed using the Myc Reporter kit (BPS Biosciences) and the Dual-Luciferase Reporter System (Promega) according to the manufacturers' instructions. Briefly, 100 μL (1.5×10^5 cells/mL) control and Kupffer cells were seeded into 96-well plates. After overnight incubation, when cells reached ˜50% confluency, 1 μL of Reporter A (60 ng/μL) in the Myc Reporter kit was transfected into cells using Turbofectin 8.0. After 48 hours, cells were lysed in 25 μL Passive Lysis Buffer (provided in the Dual-Luciferase Reporter kit). 20 μL of cell lysate was transferred to 96-well plates and placed in a 96-well microplate luminometer (GloMax-Multi, Promega). 100 μL Luciferase Assay Reagent II and 100 μL Stop & Glo Reagent (both provided in the Dual-Luciferase Reporter kit) were sequentially injected, and firefly and Renilla luciferase activities were automatically measured. c-Myc activities were determined by the ratios of firefly to Renilla luciferase activities.

As to `C=C(NC(=O)C(=C)NC(=O)c1csc(C2=N[C@@H]3c4csc(n4)[C@H]4NC(=O)c5csc(n5)[C@H]([C@](C)(O)[C@@H](C)O)NC(=O)[C@H]5CSC(=N5)/C(=C/C)NC(=O)[C@H]([C@@H](C)O)NC(=O)c5csc(n5)[C@]3(CC2)NC(=O)[C@H](C)NC(=O)C(=C)NC(=O)[C@H](C)NC(=O)[C@H]([C@@H](C)CC)N[C@@H]2C=Cc3c([C@H](C)O)cc(nc3[C@H]2O)C(=O)O[C@@H]4C)n1)C(N)=O` [Thiostrepton], the ADCP entry in test [1] was “elevated”. Moreover, the tumor growth entry in test [2] (I.P., 150 or 300 mg/kg, dosage-dependent) is “strongly suppressed”. For the same compound, the “tumor growth, with TA99” value in test [2] (I.P., 150 or 300 mg/kg) is reported as “additively”. Moreover, the “expression of Tnf, Il1b, Cxcl1 and Cxcl2 in TAMs” value in test [2] (RNA-seq, day 18, I.P. or S.C.) is “significantly upregulated”. For the same compound, the “macrophages and monocytes in tumors” value in test [2] (day 18, flow cytometry, vs vehicle or TA99) was “elevated levels”. Further, in test [2] (setting [3]), the “Arg1 in TAM” value is given as “decreased levels”; the “iNOS and CD86 in TAM” value is “elevated levels”. Besides, in test [2] (para-tumor S.C., 20 mg/kg), the tumor growth entry is given as “suppressed the tumor growth” and the “tumor growth, with TA99” value is “additive effects”. In addition, the “TNFα+ IFNγ+ NK cells in tumors” value in test [2] (vs vehicle or TA99) is on record as “increased number”.

As for `c1ccc2c(c1)[I+]c1ccccc1-2` [Diphenyleneiodonium chloride], the PKM2 enzymatic activity entry in the test with PKM2 is listed as “immediate increase”. In addition, the c-Myc luciferase activity result with c-Myc (Pkm−/− ImKCs) is “not”; in the test on c-Myc (parental ImKCs, 50 and 500 nM, 6 hrs), “induced”.
